Measured values reported in patent publication US20040086901A1, “Database for analyzing gene function and method of analyzing gene function by dspa” (priority 2000, published 2004).

Experiments:
Assay type in all cases: cell-based, mouse
[1] = system: NIH3T3 cells overexpressing HNF4; test: MTT cell viability, HNF4 overexpressing cells vs parental line; settings: HNF4 high-expressing cells / parental cell line, 3 to 4 days
Description: (§1) With regard to the function-known genes, the genes shown in the left column of Table 2 were used. With regard to the drugs, those shown in Table 1 were dissolved in DMSO to an extent of 100-fold of the maximum concentration for the search of the drugs and used. With regard to the cells, incubated NIH3T3 or ras-NIH3T3 cells were used.
(§2) Full-length cDNA of each function-known genes was incorporated into an expression vector (pRc-CMV, etc.) and transfected into NIH3T3 cells by a common method. Transformed cells were isolated using the resistance to G-418 as an index and the expression of the transfected gene in each cell was investigated by Western blotting method to select a highly expressing line.
(§3) Cell viabilities were measured according to the following procedures.
(§4) 1) From the 2nd to the 11th rows of a 96-well plate were filled with DMEM (50 μl). The 12th row was filled with 100 μl of DMEM.
(§5) 2) The 1st row was filled with 98 μl of DMEM.
(§6) 3) Drugs (2 μl each) were added into the 1st row.
(§7) 4) Continuous double-dilution was conducted from the 1st to the 9th rows. Fifty μl were taken out from the 9th row and discarded. The plate was preserved in a CO2 incubator.
(§8) 5) Cells (each high-expressing cells and the parental cell line) were detached from the medium using a trypsin solution, suspended in 10% CS-DMEM and transferred to a test tube and cell numbers (cell/ml) were counted.
(§9) 6) The cells were diluted to a concentration of 1×10^5 cells/ml, and 50 μl of the cell suspension were added to the 1st to the 11th rows of the plate followed by gently stirring.
(§10) 7) The plate was transferred to the CO2 incubator and incubated for 3 to 4 days.
(§11) 8) MTT (5 mg/ml in PBS) (10 μl) was added to the 1st to the 12th rows of the plate and incubated in the CO2 incubator at 37° C. for 4 hours.
(§12) 9) A reaction stop solution (0.04N HCl in isopropanol) (150 μl) was added followed by mixing well and being allowed to stand at room temperature for about 2 hours.
(§13) 10) Coloration of formazan which was a metabolite of the MTT dye was measured using a microplate reader. The measurement wavelength was 574 nm and the reference wavelength was 655 nm. The 10th and the 11th rows of the plate were 100% controls and the 12th row was a 0% control.
(§14) As an index for the sensitivity of highly gene-expressing cells and the parental cell line to various drugs, each of the IC40 values thereof was specified and ratios of the IC40 values were calculated. […] After that, logarithmic values of ratios of IC40 values were calculated from each gene.

[2] = system: NIH3T3 cells overexpressing coup; test: MTT cell viability, coup overexpressing cells vs parental line; settings: coup high-expressing cells / parental cell line, 3 to 4 days
Description: as §1, §2, §3, §4, §5, §6, §7, §8, §9, §10, §11, §12, §13
(§15) As an index for the sensitivity of highly gene-expressing cells and the parental cell line to various drugs, each of the IC40 values thereof was specified and ratios of the IC40 values were calculated. FIG. 2 and FIG. 3 are the examples where ratios of IC40 values were calculated from a curve showing the dependency on the concentration of the chemical versus the viability. After that, logarithmic values of ratios of IC40 values were calculated from each gene.

[3] = system: NIH3T3 cells overexpressing PKCepsilon-KN; test: MTT cell viability, PKCepsilon-KN overexpressing cells vs parental line; settings: 3 to 4 days
Description: as §1, §2, §3, §4, §5, §6, §7, §8, §9, §10, §11, §12, §13, §14

[4] = system: NIH3T3 cells overexpressing HNF1; test: MTT cell viability, HNF1 overexpressing cells vs parental line; settings: HNF1 high-expressing cells / parental cell line, 3 to 4 days
Description: as §1, §2, §3, §4, §5, §6, §7, §8, §9, §10, §11, §12, §13, §14

[5] = system: NIH3T3 cells overexpressing p38-DN; test: MTT cell viability, p38-DN overexpressing cells vs parental line; settings: p38-DN high-expressing cells / parental cell line, 3 to 4 days
Description: as §1, §2, §3, §4, §5, §6, §7, §8, §9, §10, §11, §12, §13, §14

[6] = system: NIH3T3 cells overexpressing TK; test: MTT cell viability, TK overexpressing cells vs parental line; settings: TK high-expressing cells / parental cell line, 3 to 4 days
Description: as §1, §2, §3, §4, §5, §6, §7, §8, §9, §10, §11, §12, §13, §15

[7] = system: NIH3T3 cells overexpressing N-ras; test: MTT cell viability, N-ras overexpressing cells vs parental line; settings: N-ras high-expressing cells / parental cell line, 3 to 4 days
Description: as §1, §2, §3, §4, §5, §6, §7, §8, §9, §10, §11, §12, §13, §15

[8] = system: NIH3T3 cells overexpressing STAT1; test: MTT cell viability, STAT1 overexpressing cells vs parental line; settings: STAT1 high-expressing cells / parental cell line, 3 to 4 days
Description: as §1, §2, §3, §4, §5, §6, §7, §8, §9, §10, §11, §12, §13, §14

[9] = system: NIH3T3 cells overexpressing caspase-1; test: MTT cell viability, caspase-1 overexpressing cells vs parental line; settings: caspase-1 high-expressing cells / parental cell line, 3 to 4 days
Description: as §1, §2, §3, §4, §5, §6, §7, §8, §9, §10, §11, §12, §13, §14

[10] = system: NIH3T3 cells overexpressing cystatin alpha; test: MTT cell viability, cystatin alpha overexpressing cells vs parental line; settings: cystatin alpha high-expressing cells / parental cell line, 3 to 4 days
Description: as §1, §2, §3, §4, §5, §6, §7, §8, §9, §10, §11, §12, §13, §15

[11] = system: NIH3T3 cells overexpressing CBP8; test: MTT cell viability, CBP8 overexpressing cells vs parental line; settings: CBP8 high-expressing cells / parental cell line, 3 to 4 days
Description: as §1, §2, §3, §4, §5, §6, §7, §8, §9, §10, §11, §12, §13, §15

[12] = system: NIH3T3 cells overexpressing HNF3b; test: MTT cell viability, HNF3b overexpressing cells vs parental line; settings: HNF3b high-expressing cells / parental cell line, 3 to 4 days
Description: as §1, §2, §3, §4, §5, §6, §7, §8, §9, §10, §11, §12, §13, §14

[13] = system: NIH3T3 cells overexpressing Ki-ras; test: MTT cell viability, Ki-ras overexpressing cells vs parental line; settings: Ki-ras high-expressing cells / parental cell line, 3 to 4 days
Description: as §1, §2, §3, §4, §5, §6, §7, §8, §9, §10, §11, §12, §13, §15

[14] = system: NIH3T3 cells overexpressing PDGF-R-Del; test: MTT cell viability, PDGF-R-Del overexpressing cells vs parental line; settings: PDGF-R-Del high-expressing cells / parental cell line, 3 to 4 days
Description: as §1, §2, §3, §4, §5, §6, §7, §8, §9, §10, §11, §12, §13, §15

[15] = system: NIH3T3 cells overexpressing cystatin E; test: MTT cell viability, cystatin E overexpressing cells vs parental line; settings: cystatin E high-expressing cells / parental cell line, 3 to 4 days
Description: as §1, §2, §3, §4, §5, §6, §7, §8, §9, §10, §11, §12, §13, §15

[16] = system: NIH3T3 cells overexpressing caspase-2; test: MTT cell viability, caspase-2 overexpressing cells vs parental line; settings: caspase-2 high-expressing cells / parental cell line, 3 to 4 days
Description: as §1, §2, §3, §4, §5, §6, §7, §8, §9, §10, §11, §12, §13, §15

[17] = system: NIH3T3 cells overexpressing calpastatin; test: MTT cell viability, calpastatin overexpressing cells vs parental line; settings: calpastatin high-expressing cells / parental cell line, 3 to 4 days
Description: as §1, §2, §3, §4, §5, §6, §7, §8, §9, §10, §11, §12, §13, §15

[18] = system: NIH3T3 cells overexpressing Bax; test: MTT cell viability, Bax overexpressing cells vs parental line; settings: 3 to 4 days
Description: as §1, §2, §3, §4, §5, §6, §7, §8, §9, §10, §11, §12, §13, §14

[19] = system: NIH3T3 cells overexpressing p33/ING1; test: MTT cell viability, p33/ING1 overexpressing cells vs parental line; settings: p33/ING1 high-expressing cells / parental cell line, 3 to 4 days
Description: as §1, §2, §3, §4, §5, §6, §7, §8, §9, §10, §11, §12, §13, §15

[20] = PKCepsilon-KN (first of two lines) high-expressing cells / parental cell line
[21] = PKCepsilon-KN (second of two lines) high-expressing cells / parental cell line
[22] = Bax (first of two Bax lines) high-expressing cells / parental cell line
[23] = Bax (second of two Bax lines) high-expressing cells / parental cell line

| SMILES | logarithmic value of ratio of IC40 values [1] | logarithmic value of ratio of IC40 values [2] | logarithmic value of ratio of IC40 values [3, 20] | logarithmic value of ratio of IC40 values [3, 21] | logarithmic value of ratio of IC40 values [4] | logarithmic value of ratio of IC40 values [5] | logarithmic value of ratio of IC40 values [6] | logarithmic value of ratio of IC40 values [7] | logarithmic value of ratio of IC40 values [8] | logarithmic value of ratio of IC40 values [9] | logarithmic value of ratio of IC40 values [10] | logarithmic value of ratio of IC40 values [11] | logarithmic value of ratio of IC40 values [12] | logarithmic value of ratio of IC40 values [13] | logarithmic value of ratio of IC40 values [14] | logarithmic value of ratio of IC40 values [15] | logarithmic value of ratio of IC40 values [16] | logarithmic value of ratio of IC40 values [17] | logarithmic value of ratio of IC40 values [18, 22] | logarithmic value of ratio of IC40 values [18, 23] | also measured |
| --- | --- | --- | --- | --- | --- | --- | --- | --- | --- | --- | --- | --- | --- | --- | --- | --- | --- | --- | --- | --- | --- |
| C/C=C(/C)C(=O)O[C@H]1C(C)=C2[C@H]([C@@H]1OC(=O)CCCCCCC)[C@@](C)(OC(C)=O)C[C@H](OC(=O)CCC)[C@@]1(O)[C@H]2OC(=O)[C@@]1(C)O [Thapsigargin, thapsigargin] | 0.00 | −0.30 | 0.09 | 0.20 | 0.16 | 0.02 | 0.06 | 0.08 | 0.30 | −0.30 | 0.04 | 0.12 | 0.24 | −0.05 | 0.24 | 0.00 | −0.07 | 0.046 | −0.21 | 0.20 | logarithmic value of ratio of IC40 values [19]: 0.49 |
| C[C@@H]1O[C@@H](O[C@H]2C[C@@H](O)[C@]3(CO)[C@H]4[C@H](O)C[C@]5(C)[C@@H](C6=CC(=O)OC6)CC[C@]5(O)[C@@H]4CC[C@]3(O)C2)[C@H](O)[C@H](O)[C@H]1O [Ouabain, ouabain] | −0.08 | 0.49 | −0.15 | −0.12 | 0.103 | 0.41 | 0.00 | 0.56 | 0.04 | 1.26 | 1.28 | 0.58 | −0.23 | 0.18 | 0.19 | 0.49 | −0.05 | −0.3 | 0.40 | 0.00 | logarithmic value of ratio of IC40 values [19]: 0.10 |
| C[C@@H]1C[C@@H]([C@H](O)CC2CC(=O)NC(=O)C2)C(=O)[C@@H](C)C1 [CHX, cycloheximide] | 0.22 | 0.12 | 0.06 | 0.20 | 0.38 | 0.04 | −0.13 | −0.42 | 0.00 | −0.05 | 0.34 | 0.00 | 0.07 | −0.43 | 0.39 | 0.00 | 0.74 | 0.31 | −0.08 | 0.00 | logarithmic value of ratio of IC40 values [19]: −0.30 |
| C=CC1=C(C)c2cc3[n-]c(cc4nc(cc5[n-]c(cc1n2)c(C)c5CCC(=O)O)C(CCC(=O)O)=C4C)c(C)c3C=C.[Cl-].[Cl-].[Sn+4] [SnPP] | 0.46 | 0.51 | 0.27 | 0.24 | 0.138 | 0.10 | 0.00 | 0.14 | 0.08 | −0.15 | 0.00 | 0.56 | 0.24 | 0.18 | 0.08 | 0.11 | −0.33 | 0.486 | 0.17 | 0.10 | logarithmic value of ratio of IC40 values [19]: −0.23 |
